Values belong to the substance of their own block, whether it stands above or below them. Square brackets hold non-standard residues; d marks the D form. pY = N[C@@H](Cc1ccc(OP(=O)(O)O)cc1)C(=O)O
Legend:
Experiment in all cases: pTyr-Var library bacterial peptide display kinase screen (enrichment scores)
c-Src kinase domain = c-Src kinase domain (Homo sapiens, UniProt P12931); type: biochemical; conditions: sheet "Src";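 also: log2 fold change in enrichment of variant over reference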
EPHB2 kinase domain = type: biochemical, human; conditions: sheet EPHB2; effect of variant peptide relative to its reference peptide in the pTyr-Var library screen (enrichment scores)
c-Abl kinase domain = target: T1, c-Abl kinase domain (Mus musculus, UniProt P00520); type: biochemical;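 also: log2 fold change in enrichment of variant over reference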
T1 sequence (P00520 242-493 limits assumed): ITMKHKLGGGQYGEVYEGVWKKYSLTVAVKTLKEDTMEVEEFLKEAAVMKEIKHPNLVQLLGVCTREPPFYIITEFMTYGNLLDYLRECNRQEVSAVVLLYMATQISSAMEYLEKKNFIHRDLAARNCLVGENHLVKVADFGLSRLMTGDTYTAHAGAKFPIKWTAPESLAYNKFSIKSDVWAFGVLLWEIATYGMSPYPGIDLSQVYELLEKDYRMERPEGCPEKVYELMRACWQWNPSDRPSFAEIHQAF

Fer kinase domain = type: biochemical, mouse; conditions: sheet "Fer"
EPHB1 kinase domain = type: biochemical, human; conditions: for Screen: sheet EPHB1, effect of the variant peptide relative to its reference peptide in the pTyr-Var library screen (enrichment scores); for Screen (variant relative to reference peptide, measured in the pTyr-Var library screen): sheet "EPHB1", variant seq vs reference seq, bacterial peptide display enrichment
[1] = variant peptide versus its reference peptide in the pTyr-Var library screen
[2] = fig5-data2, sheet "Abl", Screen for the variant/reference peptide pair, pTyr-Var library
[3] = value of the variant peptide against its reference peptide in the pTyr-Var library screen with Fer
[4] = effect of the variant peptide relative to its reference peptide in the pTyr-Var library screen
[5] = sheet "Abl", effect of variant peptide relative to its reference peptide in pTyr-Var library screen (enrichment)
[6] = variant peptide relative to its reference peptide, pTyr-Var library screen enrichment

Substance: GVLDIYGFDIL [MYO1A_Y382_E385D]
Screen (c-Src kinase domain; [1]): 0.6089

Substance: MSSLFYANALF [HOXB7_Y6_T9A_YF]
Screen (Fer kinase domain; [3]): -0.9977
Screen (c-Abl kinase domain; [2]): 1.131

Substance: LNPFIYSLRNC [OR1A2_Y288_W293C]
Screen (Fer kinase domain; [3]): -1.075
Screen (EPHB1 kinase domain): -1.104
Screen (c-Src kinase domain; [1]): -0.4787

Substance: EKQLLYLENKT [FRK_Y132_S133L]
Screen (c-Abl kinase domain; [2]): 1.576

Substance: PFTDPYFDFEI [ZC3H18_Y371_A368T_YF]
Screen (c-Src kinase domain; [1]): 0.4384

Substance: KLADIYQAELR [GFAP_Y116_V115I]
Screen (c-Src kinase domain; [4]): 1.355

Substance: PLDGEYFTHQI [TP53_Y327_L330H]
Screen (c-Src kinase domain; [1]): -1.246

Substance: KKFPDYIQIAR [SGMS2_Y59_M64R_YF]
Screen (variant relative to reference peptide, measured in the pTyr-Var library screen) (EPHB1 kinase domain): -0.1665
Screen (c-Abl kinase domain; [5]): 1.322

Substance: SDPIIYTLENV [ADGRE1_Y534_I539V]
Screen (Fer kinase domain; [3]): -0.559
Screen (c-Src kinase domain; [4]): -0.05563

Substance: LGNIVYSSLCG [BCOR_Y90_P85L]
Screen (Fer kinase domain; [3]): 0.7069
Screen (c-Src kinase domain; [4]): 0.02175

Substance: EDKFMYSEFPQ [PTEN_Y240_F241S]
Screen (c-Src kinase domain; [1]): 0.2043

Substance: TVLWQYTGTRP [UGT1A1_Y337_R336Q]
Screen (c-Abl kinase domain; [5]): 0.7115

Substance: VMLENYSNLLS [ZFP69_Y109_V113L]
Screen (variant relative to reference peptide, measured in the pTyr-Var library screen) (EPHB1 kinase domain): 0.4122

Substance: TESALYGCTVV [KIAA1804_Y724_L729V]
Screen (Fer kinase domain; [3]): 0.07488
Screen (c-Src kinase domain; [4]): -0.09726

Substance: RRNEIYEIKVD [LGR5_Y387_H383R]
Screen (c-Src kinase domain; [4]): -0.9028

Substance: GRTGHYLCNAC [GATA1_Y223_D218G]
Screen (c-Abl kinase domain; [2]): 0.2005

Substance: PLDGEYFTLQV [TP53_Y327_I332V]
Screen (variant relative to reference peptide, measured in the pTyr-Var library screen) (EPHB1 kinase domain): -0.1216
Screen (c-Src kinase domain; [1]): -0.8668

Substance: SNKELYEKFMI [TTN_Y32175_T32171N_YF]
Screen (Fer kinase domain; [6]): 0.5633
Screen (c-Src kinase domain; [1]): 0.8077

Substance: PNKAVYTKMMT [G6PD_Y401_E398K]
Screen (Fer kinase domain; [3]): -3.207
Screen (c-Src kinase domain; [4]): -2.964

Substance: KACKHYLTKRT [ZBTB5_Y118_T121K]
Screen (c-Abl kinase domain; [5]): -3.546

Substance: KLPDAYEPLIL [G6PD_Y437_R439P]
Screen (Fer kinase domain; [3]): 1.978

Substance: DLGIQYKVLKP [CTNNA1_Y177_A179V]
Screen (c-Abl kinase domain; [2]): 0.1591

Substance: LTDLRYKVSGP [TTN_Y22641_L22646P]
Screen (c-Abl kinase domain; [5]): -1.764

Substance: GRSTFYWPSPR [GAGE12J_Y10_R13S_YF]
Screen (c-Abl kinase domain; [2]): -1.338

Substance: DDFDLYGGEKF [PTPN11_Y66_Y62D_YF]
Screen (Fer kinase domain; [6]): 1.351
Screen (c-Abl kinase domain; [2]): -0.3703
Screen (c-Src kinase domain; [1]): -0.3825

Substance: DWQQEYVLNES [TGM1_Y267_R264Q]
Screen (c-Src kinase domain; [1]): 1.018

Substance: SSQTIYQRVEG [TFR2_Y23_V22I]
Screen (variant relative to reference peptide, measured in the pTyr-Var library screen) (EPHB1 kinase domain): 1.306
Screen (c-Src kinase domain; [1]): 1.445

Substance: VMAALYGRLFE [BTD_Y536_T532M_YF]
Screen (c-Abl kinase domain; [2]): -0.5848
Screen (c-Src kinase domain; [4]): 0.294

The remaining lines, values ahead:

Screen (EPHB2 kinase domain): -2.259
Substance: FCRHNYGAVES [HLA-DRB1_Y112_V114A_YF]

Screen (c-Abl kinase domain; [2]): 1.336
Substance: TDHLQYFDSNK [ARAP1_Y359_R358Q]

Screen (c-Abl kinase domain; [2]): 1.901
Substance: SLMNQYVNKEF [RAB7A_Y28_K32E]

Screen (c-Abl kinase domain; [2]): 0.7733
Substance: PMQMPYDSRWE [PDGFRA_Y582_L580M]

Screen (Fer kinase domain; [3]): -1.406
Substance: RREWFYEVIIA [BACE1_Y260_V265A_YF]

Screen (c-Abl kinase domain; [2]): 0.05093
Substance: DLSEVYKPCRK [CCDC93_Y176_R179C]

Screen (Fer kinase domain; [3]): 0.3514
Substance: VASMFYTLVIP [OR8K3_Y277_I275M]

Screen (EPHB1 kinase domain): 1.043
Substance: LIFTNYEVGKD [GSTP1_Y112_A114V_YF]

Screen (EPHB1 kinase domain): 0.04896
Screen (c-Abl kinase domain; [2]): 0.8508
Substance: ENFSEYQEISV [HEMGN_Y150_A154S]

Screen (c-Abl kinase domain; [2]): -1.856
Substance: Ac-QSLEKS[pY]ELLDGG-NH2 [ACTB_Y240_P243L]

Screen (c-Abl kinase domain; [2]): -1.258
Substance: ALPGEYIPTVF [RAC1_Y32_F28L]

Screen (c-Abl kinase domain; [5]): 2.994
Substance: TLLPDYEDEEE [ZNF830_Y159_S154T]

Screen (Fer kinase domain; [3]): -0.4996
Substance: KGNMFYENSFA [EGFR_Y113_R108K_YF]

Screen (c-Abl kinase domain; [2]): 1.12
Substance: REGAKYVSHDA [ASS1_Y113_G117D]

Screen (c-Abl kinase domain; [5]): 2.19
Substance: TTKGAYSLSVR [YES1_Y194_I198V]

Screen (c-Abl kinase domain; [5]): 0.8616
Substance: KSVEEYANCHL [TF_Y593_P589S]

Screen (Fer kinase domain; [3]): 0.5529
Substance: LTMAPYSSVSV [FAM81A_Y24_L29V]

Screen (c-Abl kinase domain; [2]): 1.235
Substance: FRTGHYLCNAC [GATA1_Y223_D218Y_YF]

Screen (c-Abl kinase domain; [5]): -0.1763
Substance: KPGLIYNKVNP [SPRED3_Y72_V71I]

Screen (EPHB1 kinase domain): 0.6712
Substance: WCSNDYLGMSQ [ALAS2_Y199_R204Q]

Screen (c-Abl kinase domain; [2]): -1.01
Substance: PVQAAYQKLVA [HBB_Y131_V134L]

Screen (EPHB2 kinase domain): -0.9943
Substance: ADRLEYSRTGL [MMUT_Y287_G284R]

Screen (c-Abl kinase domain; [2]): 0.4242
Substance: SHSMRYFSTAV [HLA-C_Y31_D33S]
